Data on 30 compounds can be found in patent US11084826B2, “RSV antiviral pyrazolo- and triazolo-pyrimidine compounds” (Janssen Sciences Ireland Unlimited Company, priority 2015, dated 2021).

The term CC50 denotes the concentration at which the toxic effect on the cells reaches its halfway point. Higher therefore signals better tolerance by the cells. The term melting point denotes the temperature of the solid-liquid transition.

One series relates to rgRSV224 virus. The series can be described thus: Antiviral activity: inhibition of rgRSV224 (GFP-expressing RSV) replication in HeLa cells, GFP expression read-out. In kind it is cell-based, respiratory syncytial virus (RSV). The note with it: human respiratory syncytial virus, HeLa, read-out: RSV HELA pEC50, rgRSV224 virus (MOI=1) in HeLa cells, GFP read-out (converted). The protocol: (§1) Black 384-well clear-bottom microtiter plates (Corning, Amsterdam, The Netherlands) were filled via acoustic drop ejection using the echo liquid handler (Labcyte, Sunnyvale, Calif.). 200 nL of compound stock solutions (100% DMSO) were transferred to the assay plates. 9 serial 4-fold dilutions of compound were made, creating per quadrant the same compound concentration. The assay was initiated by adding 10 μL of culture medium to each well (RPMI medium without phenol red, 10% FBS-heat inactivated, 0.04% gentamycin (50 mg/mL). All addition steps are done by using a multidrop dispenser (Thermo Scientific, Erembodegem, Belgium). Next, rgRSV224 virus (MOI=1) diluted in culture medium was added to the plates. rgRSV224 virus is an engineered virus that includes an additional GFP gene (Hallak LK, Spillmann D, Collins PL, Peeples Me. Glycosaminoglycan sulfation requirements for respiratory syncytial virus infection; Journal of virology (2000), 74(22), 10508-13) and was in-licensed from the NIH (Bethesda, Md., USA). Finally, 20 μL of a HeLa cell suspension (3,000 cells/well) were plated. Medium, virus- and mock-infected controls were included in each test. The wells contain 0.05% DMSO per volume. Cells were incubated at 37° C. in a 5% CO2 atmosphere. Three days post-virus exposure, viral replication was quantified by measuring GFP expression in the cells by an in house developed MSM laser microscope (Tibotec, Beerse, Belgium). The EC50 was defined as the 50% inhibitory concentration for GFP expression. In parallel, compounds were incubated for three days in a set of white 384-well microtiter plates (Corning) and the cytotoxicity of compounds in HeLa cells was determined by measuring the ATP content of the cells using the ATPlite kit (Perkin Elmer, Zaventem, Belgium) according to the manufacturer's instructions. The CC50 was defined as the 50% concentration for cytotoxicity.

Series [1] can be described thus: Cytotoxicity in HeLa cells, ATP content measured with the ATPlite kit. In kind it is cell-based. Conditions: human, TOX HELA pCC50. The protocol: as §1
Background: In ATP-based viability assays light output follows the ATP content of the culture.

With `CCc1cc(C(=O)N2CCCCCC2C)nc2c(F)c(-c3ccc(C(N)=O)cc3)nn12` (stereo not drawn) [Compound J2], the melting point was 195 to 200 °C. Further, the EC50 with rgRSV224 virus was 263 nM. For the same compound, in series [1], the CC50 at 3 days is greater than 25100 nM.
For `CCc1cc(C(=O)N2CCCCCC2C)nc2cc(-c3ccc(C(=O)NS(C)(=O)=O)cc3F)nn12` (stereo not drawn) [Compound L10], the melting point turned out to be 194 °C. Further, in the series on rgRSV224 virus, the EC50 was 2690 nM. For the same compound, the CC50 at 3 days in series [1] is greater than 25100 nM.
Compound `CCc1cc(C(=O)N2CCCCCC2C)nc2cc(-c3ccc(NC(=O)C4CC4)cc3)nn12` (stereo not drawn) [Compound E14] registered a melting point of 265 to 270 °C. Also, the EC50 in the series with rgRSV224 virus is 309 nM. This compound also gave a CC50 at 3 days in series [1] greater than 50100 nM.
As to `CCc1cc(C(=O)N2CCCCCC2C)nc2cc(-c3ccc(-c4cn(C)c(C)n4)cc3F)nn12` (stereo not drawn) [Compound F10], the melting point lay in the range of 118 to 119 °C. Further, in the series with rgRSV224 virus, the EC50 was 692 nM. This compound also showed a CC50 at 3 days in series [1] greater than 25100 nM.
The like results for `CCc1cc(C(=O)N2CCCCCC2C)nc2cc(-c3ccc(-c4cnn(C)c4)cc3F)nn12` (stereo not drawn) [Compound F9] were, in that order, 65 to 67 °C, 661 nM and greater than 25100 nM.
The compound `C[C@@H]1CCCCCN1C(=O)c1cc(C2(C)CC2)n2nc(-c3ccc(OCC(=O)O)cc3F)cc2n1` (racemic) [Compound F48] showed a melting point of 204.93 °C. For the same compound, the EC50 in the series on rgRSV224 virus is 437 nM. The CC50 at 3 days in series [1] was greater than 100000 nM.
The like results for `CCc1cc(C(=O)N2CCCCCC2C)nc2cc(-c3ccc(CCC(N)=O)cc3F)nn12` (stereo not drawn) [Compound R1] were, in that order, 95 to 100 °C, 251 nM and greater than 25100 nM.
On to `CC1CCCCCN1C(=O)c1cc(N2CCCC2)n2nc(-c3ccc(NC(=O)NCC4CCCO4)cc3)cc2n1` (stereo not drawn) [Compound B10], for which the melting point lay within 228 to 230 °C. Besides, the EC50 in the series on rgRSV224 virus is 316 nM. Moreover, the CC50 at 3 days in series [1] was greater than 100000 nM.
Compound `C=CCC(=O)Nc1ccc(-c2cc3nc(C(=O)N4CCCCCC4C)cc(CC)n3n2)cc1` (stereo not drawn) [Compound E21] gave a melting point of 243 to 244 °C. The EC50 in the series on rgRSV224 virus was 603 nM. In series [1], this compound had a CC50 at 3 days greater than 25100 nM.
Take `CCc1cc(C(=O)N2CCCCCCC2C)nc2cc(-c3ccc(C(N)=O)cc3)nn12` (stereo not drawn) [Compound A29]: the melting point was in the range of 170 to 175 °C. Besides, the EC50 in the series with rgRSV224 virus is 155 nM. The compound also yielded a CC50 at 3 days in series [1] greater than 25100 nM.
`CCc1cc(C(=O)N2CCCCCC2C)nc2cc(-c3ccc(NC(=S)NCC4CCCO4)cc3F)nn12` (stereo not drawn) [Compound B13]: the melting point was 210 to 215 °C. In the series on rgRSV224 virus, the EC50 is 398 nM. The CC50 at 3 days in series [1] was greater than 25100 nM.
`CCc1cc(C(=O)N2CCCCCCC2C)nc2cc(-c3ccc(NS(C)(=O)=O)cc3F)nn12` (stereo not drawn) [Compound D3] had a melting point of 195 to 200 °C. The EC50 in the series with rgRSV224 virus was 145 nM. In addition, the CC50 at 3 days in series [1] was greater than 25100 nM.
In the same order, the values of `CC1CCCCCN1C(=O)c1cc(N2CCCC2)n2nc(-c3ccc(NC(=O)C4CC4)cc3)cc2n1` (stereo not drawn) [Compound E17] are 282 to 284 °C, 513 nM and greater than 50100 nM.
`CCc1cc(C(=O)N2CCCCCC2C)nc2cc(-c3ccc(NC(=O)CC4CCCCN(C)C4=O)cc3)nn12` (stereo not drawn) [Compound E9] returned a melting point of 255 to 260 °C. For the same compound, in the series on rgRSV224 virus, the EC50 is 170 nM. This compound returned a CC50 at 3 days in series [1] greater than 25100 nM.
The like results for `CCc1cc(C(=O)N2CCCCC[C@H]2C)nc2cc(-c3ccc(NC(=O)C4CC4)cc3F)nn12` [Compound E10] were, in that order, 225 to 230 °C, 91.2 nM and greater than 25100 nM.
In the same order, the values of `CCc1cc(C(=O)N2CCCCCC2C)nc2cc(-c3ccc(C(=O)O)cc3F)nn12` (stereo not drawn) [Compound K2] are 210 °C, 562 nM and greater than 25100 nM.
In the same order, the values of `CCc1cc(C(=O)N2CCCCCC2C)nc2c(F)c(-c3ccc(NS(C)(=O)=O)cc3F)nn12` (stereo not drawn) [Compound D4] are 210 to 212 °C, 490 nM and greater than 25100 nM.
With `CC1CCCCCN1C(=O)c1cc(N2CCCCC2)n2nc(-c3ccc(NC(=O)NCC4CCCO4)cc3)cc2n1` (stereo not drawn) [Compound B11], the melting point fell in the range of 168 to 171 °C. For the same compound, the EC50 in the series with rgRSV224 virus was 282 nM. In series [1], this compound registered a CC50 at 3 days greater than 100000 nM.
In turn, `CCc1cc(C(=O)N2CCCCCC2C)nc2cc(-c3ccc(-c4cncnc4)cc3)nn12` (stereo not drawn) [Compound F3] had a melting point of 185 °C. Moreover, the EC50 in the series with rgRSV224 virus is 832 nM. The CC50 at 3 days in series [1] was greater than 100000 nM.
In the same order, the values of `CCc1cc(C(=O)N2CCCCCC2C)nc2cc(-c3ccc(C(=O)NCc4cccs4)cc3F)nn12` (stereo not drawn) [Compound L8] are 156 °C, 324 nM and greater than 25100 nM.
For the compound `CCc1cc(C(=O)N2CCc3sccc3C2C)nc2cc(-c3cccc(/C=C/C(=O)O)c3F)nn12` (racemic) [Compound M48], the melting point is 255.5 °C. The EC50 in the series on rgRSV224 virus is 12.9 nM. For the same compound, the CC50 at 3 days in series [1] is greater than 25100 nM.
On to `CCc1cc(C(=O)N2CCCCC[C@H]2C)nc2cc(-c3ccc(N4CCC(C)(C(=O)O)C4)cc3F)nn12` (stereo partly drawn) [Compound W17], for which the melting point is 172.28 °C. The EC50 in the series on rgRSV224 virus is 21.9 nM. In series [1], this compound had a CC50 at 3 days of 58900 nM.
In turn, `CCc1cc(C(=O)N2CCCCCC2C)nc2cc(-c3ccc(NC(=O)NCC4CC4)cc3)nn12` (stereo not drawn) [Compound B9] showed a melting point of 165 to 170 °C. In addition, the EC50 in the series on rgRSV224 virus is 501 nM. This compound yielded a CC50 at 3 days in series [1] greater than 100000 nM.
Consider `CCc1cc(C(=O)N2CCn3nccc3C2C)nc2cc(-c3ccc(/C=C/C(=O)O)cc3F)nn12` (stereo not drawn) [Compound M41], for which the melting point was in the range of 225 to 230 °C. For the same compound, the EC50 in the series on rgRSV224 virus was 794 nM. This compound also yielded a CC50 at 3 days in series [1] greater than 25100 nM.
Compound `CCc1cc(C(=O)N2CCCCCC2C)nc2cc(-c3ccc(NC(=O)CCC(N)=O)cc3F)nn12` (stereo not drawn) [Compound E25] gave a melting point of 155 to 160 °C. Moreover, the EC50 in the series on rgRSV224 virus was 61.7 nM. This compound also had a CC50 at 3 days in series [1] greater than 25100 nM.
The like results for `C[C@@H]1CCCCCN1C(=O)c1cc(C2(C)CC2)n2nc(-c3ccc(-c4ccc(C(=O)O)cn4)cc3F)cc2n1` [Compound F31] were, in that order, 257.89 °C, 49 nM and 32400 nM.
Consider `CCc1cc(C(=O)N2CCCCCC2C)nc2cc(-c3cccs3)nn12` (stereo not drawn) [Compound A1], for which the melting point is 110 to 120 °C. Further, in the series with rgRSV224 virus, the EC50 was 5010 nM. Also, the CC50 at 3 days in series [1] is greater than 50100 nM.
Compound `CCc1cc(C(=O)N2CCCCCC2C)nc2cc(-c3ccc(N/C(=N/C#N)NC4CC4)cc3)nn12` (stereo not drawn) [Compound B18] came in with a melting point of 222 to 223 °C. In addition, in the series on rgRSV224 virus, the EC50 is 1150 nM. In series [1], this compound came in with a CC50 at 3 days greater than 25100 nM.
In turn, `CCc1cc(C(=O)N2CCCCC[C@H]2C)nc2cc(-c3ccc(-n4cc(C(=O)O)c(Cl)n4)cc3F)nn12` [Compound W35] displayed a melting point of 145.75 °C. The EC50 with rgRSV224 virus was 191 nM. Also, the 50% cytotoxic concentration (CC50) at 3 days in series [1] was greater than 25100 nM.
The like results for `CCc1cc(C(=O)N2CCCCCC2C)nc2cc(-c3ccc(-c4cncc(F)c4)cc3F)nn12` (stereo not drawn) [Compound F7] were, in that order, 95 to 96 °C, 2090 nM and greater than 25100 nM.
